{
  "source": "patent US11517581B2",
  "about": "“Zika virus protease inhibitors and methods of use thereof” (priority 2017, dated 2022)",
  "key": {"[1]": {"conditions": "oral and parenteral; cited from earlier work"}, "ZIKV [2]": {"system": "ZIKV", "conditions": "recently reported; cited from earlier work"}, "ZIKV NS2B-NS3 protease": {"molecular_target": "ZIKV NS2B-NS3 protease (Zika virus, UniProt A0A024B7W1, DEL1468-1502)", "sequence (A0A024B7W1 1502-1672, added parts left off, stated change not applied)": "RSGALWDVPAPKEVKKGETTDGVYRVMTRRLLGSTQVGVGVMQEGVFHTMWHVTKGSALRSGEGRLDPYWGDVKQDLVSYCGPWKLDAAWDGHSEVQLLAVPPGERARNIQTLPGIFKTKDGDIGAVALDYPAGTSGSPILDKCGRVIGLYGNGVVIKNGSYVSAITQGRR", "format": "biochemical", "conditions": "10 μM substrate; for Effect of increasing drug concentrations on protease activity: 5 nM protease"}, "ZIKV [3]": {"system": "ZIKV", "conditions": "literature; cited from earlier work"}, "[4]": {"assay": "Cell viability (MTT) assay in Vero cells", "format": "cell-based", "conditions": "African green monkey", "protocol": "(§1) Briefly, Vero or Huh-7 cells (4×10^4 cells/well) were incubated with different concentrations of individual drug for 24 h, followed by the addition of 10 μl/well of 5 mg/ml MTT substrate. The monolayers were incubated as above for 4 h (away from light). Finally, 100 μl of 10% sodium dodecyl sulfate (SDS) with 0.01M HCl was added and further incubated at 37° C. with 5% CO2 overnight. […] Briefly, the drug compounds were diluted with serum-free MEM and added to confluent Vero cells in 96-well culture plates (4×10^4 cells/well) in triplicate for 2 h at 37° C. After incubation, the drug-containing media were removed, and ZIKV (multiplicity of infection, MOI=0.0002) was added together with fresh drug-compound media to each well. Following 1 h of adsorption at 37° C., the virus-compound mixture was removed and the cells were washed twice with MEM to remove unbound virus. Subsequently, media with antiviral compounds were added to the cells for further incubation for 6 days at 37° C. in a 5% CO2 humidified environment. CPE was examined by inverted light microscopy (Chan et al., 2016b). Thereafter, MTT substrate and SDS-HCl were added sequentially as mentioned above. The half maximal inhibitory concentration (IC50) and CC50 were calculated using Sigma plot (SPSS) in an Excel add-in ED50V10."}, "[5]": {"assay": "Cell viability (MTT) assay in Huh-7 cells", "format": "cell-based", "conditions": "human", "protocol": "as §1"}, "[6]": {"system": "ZIKV (Puerto Rico strain PRVABC59)", "assay": "Viral load reduction assay (qRT-PCR) in Vero cells", "format": "cell-based, Zika virus", "conditions": "culture supernatants, Vero and Huh-7; data not shown"}, "[7]": {"system": "ZIKV NS2B-NS3 protease (recombinant fusion, ZIKV-NS2B residues 49-95 and ZIKV-NS3 residues 1-170)", "assay": "Fluorescence-based protease inhibition assay", "format": "biochemical, Zika virus", "conditions": "10 μM substrate, 5 nM protease", "source_text": "The recombinant ZIKV NS2B-NS3 protease was produced as previously described with some modifications (Lei et al., 2016). Briefly, coding regions of the ZIKV-NS2B (residues 49-95) and ZIKV-NS3 (residues 1-170) genes were fused and cloned into the pET-28b(+) expression vector (Novagen, Merck & Co., New Jersey, USA). The plasmid was transformed into Escherichia coli strain BL21 (DE3) and overexpressed in 2×YT medium. When the OD600 of the culture reached 0.8, overexpression of the ZIKV NS2B-NS3 protease gene was induced for overnight by addition of 0.5 mM IPTG at 20° C. […] The purified protein was detected by Western blot using anti-His-tag antibodies. Concentration of protein was determined by Bradford protein assay kit (Bio-Rad Laboratories, California, USA) using bovine serum albumin as standard.\nThe recombinant ZIKV NS2B-NS3 protease was produced as previously described with some modifications (Lei et al., 2016). To detect ZIKV NS2B-NS3 protease activity, a fluorescence-based enzymatic assay was conducted in 96-well black micro-plates (Greiner Bio-One, Kremsmünster, Germany). […] The fluorescence signal from the released AMC was measured at 460 nm with excitation at 360 nm, using a VICTOR™ X3 multilabel plate reader (Perkin Elmer, Massachusetts, USA). […] After 10 min, the fluorescence intensity was measured. […]"}},
  "data": [
    {"compound": "O=C(Nc1ccc([N+](=O)[O-])cc1Cl)c1cc(Cl)ccc1O", "note": "[niclosamide]", "values": [
      {"measurement": "Solubility", "setting": "[1]", "result": "insoluble"}
    ]},
    {"compound": "CC[C@H](C)[C@H]1O[C@]2(CC[C@@H]1C)C[C@@H]1C[C@@H](C/C=C(\\C)[C@@H](O[C@H]3C[C@H](OC)[C@@H](O[C@H]4C[C@H](OC)[C@@H](O)[C@H](C)O4)[C@H](C)O3)[C@@H](C)/C=C/C=C3\\CO[C@@H]4[C@H](O)C(C)=C[C@@H](C(=O)O1)[C@]34O)O2", "note": "[Ivermectin]", "values": [
      {"measurement": "In vitro anti-ZIKV effects", "setting": "ZIKV [2]", "result": "in vitro anti-ZIKV effects"}
    ]},
    {"compound": "CCN(CC)CCCC(C)Nc1ccnc2cc(Cl)ccc12", "note": "(centres unmarked) [Chloroquine]", "values": [
      {"measurement": "In vitro anti-ZIKV effects", "setting": "ZIKV [2]", "result": "in vitro anti-ZIKV effects"}
    ]},
    {"compound": "Aprotinin [listing 1 of 2 here]", "values": [
      {"measurement": "IC50 (vs protease activity)", "setting": "ZIKV NS2B-NS3 protease; 5 nM ZIKV NS2B-NS3 protease, positive control", "result": "13.6 ± 1.1", "unit": "KIU/ml"}
    ]},
    {"compound": "CCCCCCCCCC(=O)N[C@@H](Cc1c[nH]c2ccccc12)C(=O)N[C@H](CC(N)=O)C(=O)N[C@@H](CC(=O)O)C(=O)N[C@@H]1C(=O)NCC(=O)N[C@@H](CCCN)C(=O)N[C@@H](CC(=O)O)C(=O)N[C@H](C)C(=O)N[C@@H](CC(=O)O)C(=O)NCC(=O)N[C@H](CO)C(=O)N[C@@H]([C@H](C)CC(=O)O)C(=O)N[C@@H](CC(=O)c2ccccc2N)C(=O)O[C@@H]1C", "note": "[Daptomycin]", "values": [
      {"measurement": "In vitro anti-ZIKV effects", "setting": "ZIKV [2]", "result": "in vitro anti-ZIKV effects"}
    ]},
    {"compound": "Octreotide acetate", "values": [
      {"measurement": "Effect of increasing drug concentrations on protease activity", "setting": "ZIKV NS2B-NS3 protease", "result": "dose-dependent reduction in protease activity"}
    ]},
    {"compound": "O=C(Nc1ccc([N+](=O)[O-])cc1Cl)c1cc(Cl)ccc1O", "note": "[Niclosamide]", "values": [
      {"measurement": "In vitro anti-ZIKV effects", "setting": "ZIKV [2]", "result": "in vitro anti-ZIKV effects"}
    ]},
    {"compound": "CC(C)OC(=O)[C@H](C)N[P@](=O)(OC[C@H]1O[C@@H](n2ccc(=O)[nH]c2=O)[C@](C)(F)[C@@H]1O)Oc1ccccc1", "note": "[Sofosbuvir]", "values": [
      {"measurement": "In vitro anti-ZIKV effects", "setting": "ZIKV [2]", "result": "in vitro anti-ZIKV effects"},
      {"measurement": "Efficacy in animal models", "setting": "ZIKV [3]", "result": "effective in animal models"}
    ]},
    {"compound": "CO[C@H]1/C=C/O[C@@]2(C)Oc3c(C)c(O)c4c(O)c(c(/C=N/N5CCN(C)CC5)c(O)c4c3C2=O)NC(=O)/C(C)=C\\C=C\\[C@H](C)[C@H](O)[C@@H](C)[C@@H](O)[C@@H](C)[C@H](OC(C)=O)[C@@H]1C", "note": "[Rifampicin]", "values": [
      {"measurement": "Effect of increasing drug concentrations on protease activity", "setting": "ZIKV NS2B-NS3 protease", "result": "dose-dependent reduction in protease activity"},
      {"measurement": "CC50 at 24 h", "setting": "[4]", "result": 400, "unit": "µg/mL"},
      {"measurement": "CC50 at 24 h", "setting": "[5]", "result": 400, "unit": "µg/mL"},
      {"measurement": "Dose-dependent reduction in virus titer observed", "setting": "[6]", "result": "not"}
    ]},
    {"compound": "CC[C@H]1OC(=O)[C@H](C)[C@@H](O[C@H]2C[C@@](C)(OC)[C@@H](O)[C@H](C)O2)[C@H](C)[C@@H](O[C@@H]2O[C@H](C)C[C@H](N(C)C)[C@H]2O)[C@](C)(O)C[C@@H](C)CN(C)[C@H](C)[C@@H](O)[C@]1(C)O", "note": "[Azithromycin]", "values": [
      {"measurement": "In vitro anti-ZIKV effects", "setting": "ZIKV [2]", "result": "in vitro anti-ZIKV effects"}
    ]},
    {"compound": "OC(c1cc(C(F)(F)F)nc2c(C(F)(F)F)cccc12)C1CCCCN1", "note": "(centres unmarked) [Mefloquine]", "values": [
      {"measurement": "In vitro anti-ZIKV effects", "setting": "ZIKV [2]", "result": "in vitro anti-ZIKV effects"}
    ]},
    {"compound": "N=C(N)NCCC[C@H](NC(=O)[C@@H]1CCCN1C(=O)[C@@H]1CSSCCC(=O)N[C@@H](Cc2ccc(O)cc2)C(=O)N[C@@H](Cc2ccccc2)C(=O)N[C@@H](CCC(N)=O)C(=O)N[C@@H](CC(N)=O)C(=O)N1)C(=O)NCC(N)=O", "note": "[Desmopressin acetate]", "values": [
      {"measurement": "Effect of increasing drug concentrations on protease activity", "setting": "ZIKV NS2B-NS3 protease", "result": "dose-dependent reduction in protease activity"}
    ]},
    {"compound": "Aprotinin [listing 2 of 2 here]", "values": [
      {"measurement": "Reduction in protease activity with increasing concentrations", "setting": "[7]", "result": "blocked the protease cleavage activity"}
    ]}
  ]
}
